Blank lines part the entries; values can stand above or below the compound they belong to.
Experiments:
[1] = Water adsorption of the crystals (vapor adsorption isotherm); assay type: physicochemical; conditions: 25° C.
Method: The Measuring Method of the Water Adsorption of the Crystals (Creation of the Vapor Adsorption Isotherm)
• (1) The measuring method of water adsorption amount and conditions
100 mg of each of the above obtained α-type, γ-type and ε-type crystals were weighed and vacuum dried at 50° C. overnight. Then, under the constant temperature of 25° C., the water adsorption amount of the crystals was determined with a full automatic vapor adsorption measuring apparatus (BELSORP-18, BEL Japan, Inc.) (Mitsuiki et al., J. Agric. Food Chem., vol. 46, no. 9, pp. 3528-3534 (1998)). • (2) The measurement results

[2] = Temperature changes of the powder X-ray diffraction patterns (crystal transition, T-G curves); assay type: physicochemical; conditions: from T-G curves (FIG. 10)
Method: Measurement of the Temperature Changes of the Powder X-Ray Diffraction Patterns of the α-Type, γ-Type, ε-Type, and η-Type Crystals
• (1) The measuring method and conditions
The measurement was conducted in the same conditions as those of the above measurement of the powder X-ray diffraction patterns.

water adsorption (in words) ([1]; listed as γ-type): particularly low water adsorption
Compound: COC(=O)[C@H](Cc1ccc(-n2c(=O)c3cc(N(C)C)ccc3n(C)c2=O)cc1)NC(=O)c1c(Cl)cccc1Cl [γ-type crystal]

water adsorption (in words) ([1]; listed as α-type): low water adsorption
order of thermodynamic stability of crystal forms at room temperature ([2]; room temperature): α-type>η-type>γ-type>ε-type>θ-type
Compound: COC(=O)[C@H](Cc1ccc(-n2c(=O)c3cc(N(C)C)ccc3n(C)c2=O)cc1)NC(=O)c1c(Cl)cccc1Cl [α-type crystal]

thermodynamic stability in high temperature range ([2]; high temperature range): stably exists
Compound: COC(=O)[C@H](Cc1ccc(-n2c(=O)c3cc(N(C)C)ccc3n(C)c2=O)cc1)NC(=O)c1c(Cl)cccc1Cl [θ-type crystal]

water adsorption (in words) ([1]; listed as ε-type): particularly low water adsorption
Compound: COC(=O)[C@H](Cc1ccc(-n2c(=O)c3cc(N(C)C)ccc3n(C)c2=O)cc1)NC(=O)c1c(Cl)cccc1Cl [ε-type crystal]
